The results in this text go back to publication PMC5391474, “Investigation of the Role of Protein Kinase D in Human Rhinovirus Replication” (Journal of Virology, 2017).

Common to all, as to assay: biochemical
What all share (parameters): in vitro kinase selectivity panel, protein and lipid kinases, single concentration, ATP at Km
Conditions in all cases: ATP at Km

For one assay, the target named is T1, PIK3CG / p85 (h) (Homo sapiens, UniProt P48736).
T1 construct: p110gamma/p85 as printed
The method, then: (§1) CRT0066101 was described previously ([48]) and was purchased for this study from Tocris, with a purity of 99.9%. CRT0066101 (XX-209) and compound XX-050 were synthesized as previously described ([68]). CRT0066051 (Y-095) was also synthesized as previously described ([69]). […] CRT0066101 can also be obtained in larger quantities from Ximbio. Inhibitors were tested in in vitro PKD kinase assays and cellular assays on PANC1 cells as previously described ([48]). The selectivity of the three PKD inhibitors was determined against a panel of protein and lipid kinases by Eurofins and the MRC PPU International Centre for Kinase Profiling (http://www.kinase-screen.mrc.ac.uk), respectively. Each inhibitor was tested at a single concentration of 1 μM and at an ATP concentration equivalent to the Km for each kinase. Having shown that HRV infection appears to activate PKD, we went on to explore the influence of chemical inhibitors of PKD on HRV replication. The compound CRT0066101 is a specific and potent PKD inhibitor that has been used in studies exploring its potential as an anticancer target ([48], [51]). This inhibitor has a 50% inhibitory concentration (IC50) of 1 nM against purified PKD in biochemical assays and a 50% effective concentration (EC50) of 1 μM in a cell-based assay (Table 1). We pretreated HeLa cells with increasing concentrations of the drug for 1 h followed by infection with HRV16. Viral replication was subsequently measured at 6 hpi by quantitative real-time PCR (qRT-PCR) (Fig. 2A) and by Western blotting using an antibody against the viral nonstructural protein 2C (Fig. 2B). […] Furthermore, we tested two novel and structurally different PKD inhibitors (CRT0066051 and XX-050) (Table 1) and confirmed that they too inhibited HRV 2C expression although with different potencies (Fig. 2D). Kinase selectivity profiling of all three PKD inhibitors was performed against a panel of protein and lipid kinases at a drug concentration of 1 μM and at an ATP concentration equivalent to the Km of each kinase (see Table S1 in the supplemental material). […] Since PKD is known to be involved in regulating the architecture of the Golgi apparatus, we confirmed the pharmacodynamic effect of these inhibitors by demon

The target of the next assay is Fes(h) (Homo sapiens, UniProt P07332). As to the method: as §1
For a further assay, the target named is Flt1(h) (Homo sapiens, UniProt P17948). As to the method:
as §1

A further assay concerns the target ErbB4(h) (Homo sapiens, UniProt Q15303). The method, then:
as §1

A further assay addresses T2, PKCβII(h) (Homo sapiens, UniProt P05771).
T2 construct: gene PRKCB; isoform beta II
The method, then: as §1

The target of a further assay is PIK3CA (Homo sapiens, UniProt P42336). As to the method:
as §1

The target of a further assay is T3, IKKα(h) (Homo sapiens, UniProt O15111).
T3 construct: gene CHUK
The method, then: as §1

The target of another assay is HIPK1(h) (Homo sapiens, UniProt Q86Z02). As to the method:
as §1

Another assay deals with DGKG (Homo sapiens, UniProt P49619). As to the method:
as §1

The next assay has as its target T4, TAK1(h) (Homo sapiens, UniProt O43318).
T4 construct: gene MAP3K7
The method, then: as §1

Another assay has as its target T5, PKCε(h) (Homo sapiens, UniProt Q02156).
T5 construct: gene PRKCE
As to the method: as §1

A further assay concerns the target T6, Ros(h) (Homo sapiens, UniProt P08922).
T6 construct: gene ROS1
As to the method: as §1

A further assay concerns the target PIK3CB (Homo sapiens, UniProt P42338). The method, then:
as §1

The next assay has as its target DGKB (Homo sapiens, UniProt Q9Y6T7). As to the method:
as §1

The next assay concerns the target LIMK1(h) (Homo sapiens, UniProt P53667). The method, then: as §1
A further assay has as its target T7, MEK1(h) (Homo sapiens, UniProt Q02750).
T7 construct: gene MAP2K1
As to the method: as §1

For another assay, the target named is EphA2(h) (Homo sapiens, UniProt P29317). The method, then: as §1
For a further assay, the target named is Blk(m) (Mus musculus, UniProt P16277). As to the method: as §1
Blk(m), sequence (P16277 whole entry): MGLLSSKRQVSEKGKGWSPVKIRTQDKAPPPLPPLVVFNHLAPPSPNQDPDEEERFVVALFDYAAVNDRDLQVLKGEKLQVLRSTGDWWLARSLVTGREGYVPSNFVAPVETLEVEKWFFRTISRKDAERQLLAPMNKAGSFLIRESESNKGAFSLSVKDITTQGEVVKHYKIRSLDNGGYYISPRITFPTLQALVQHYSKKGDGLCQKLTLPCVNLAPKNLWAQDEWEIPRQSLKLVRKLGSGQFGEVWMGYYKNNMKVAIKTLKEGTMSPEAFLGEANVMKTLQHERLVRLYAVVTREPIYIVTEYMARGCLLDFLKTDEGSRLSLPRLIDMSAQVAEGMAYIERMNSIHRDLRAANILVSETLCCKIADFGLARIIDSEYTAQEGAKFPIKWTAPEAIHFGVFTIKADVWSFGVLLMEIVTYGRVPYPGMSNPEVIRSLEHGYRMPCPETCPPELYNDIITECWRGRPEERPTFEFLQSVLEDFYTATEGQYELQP

T7 sequence (Q02750 whole entry): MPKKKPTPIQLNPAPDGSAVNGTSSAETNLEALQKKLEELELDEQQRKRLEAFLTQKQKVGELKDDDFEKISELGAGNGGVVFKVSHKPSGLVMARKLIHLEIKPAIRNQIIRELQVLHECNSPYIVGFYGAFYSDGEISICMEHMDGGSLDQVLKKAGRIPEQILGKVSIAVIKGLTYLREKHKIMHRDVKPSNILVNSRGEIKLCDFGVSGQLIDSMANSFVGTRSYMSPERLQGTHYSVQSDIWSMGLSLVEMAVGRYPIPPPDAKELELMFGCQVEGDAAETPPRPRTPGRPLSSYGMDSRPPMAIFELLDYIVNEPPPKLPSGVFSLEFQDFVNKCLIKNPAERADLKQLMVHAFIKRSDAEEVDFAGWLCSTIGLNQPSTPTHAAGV
DGKG, sequence (P49619 whole entry): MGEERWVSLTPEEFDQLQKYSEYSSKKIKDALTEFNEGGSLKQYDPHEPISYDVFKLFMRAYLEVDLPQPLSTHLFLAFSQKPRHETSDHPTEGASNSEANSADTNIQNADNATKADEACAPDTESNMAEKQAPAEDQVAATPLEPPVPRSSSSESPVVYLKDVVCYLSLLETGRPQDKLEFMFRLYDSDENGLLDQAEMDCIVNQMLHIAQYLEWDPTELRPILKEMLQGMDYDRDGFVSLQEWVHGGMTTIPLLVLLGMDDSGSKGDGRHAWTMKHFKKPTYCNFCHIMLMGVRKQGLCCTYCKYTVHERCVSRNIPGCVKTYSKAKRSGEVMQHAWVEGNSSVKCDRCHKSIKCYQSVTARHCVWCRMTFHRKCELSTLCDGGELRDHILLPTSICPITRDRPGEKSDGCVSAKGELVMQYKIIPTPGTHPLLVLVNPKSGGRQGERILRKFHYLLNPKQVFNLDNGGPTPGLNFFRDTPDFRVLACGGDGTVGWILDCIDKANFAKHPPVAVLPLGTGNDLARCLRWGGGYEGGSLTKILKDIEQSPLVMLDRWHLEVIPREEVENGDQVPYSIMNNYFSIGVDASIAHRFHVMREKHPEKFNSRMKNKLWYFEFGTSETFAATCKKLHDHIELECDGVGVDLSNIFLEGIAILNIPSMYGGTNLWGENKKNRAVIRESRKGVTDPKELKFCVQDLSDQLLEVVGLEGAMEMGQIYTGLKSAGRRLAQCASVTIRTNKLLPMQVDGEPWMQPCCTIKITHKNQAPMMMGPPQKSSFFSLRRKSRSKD
T2 sequence (P05771 whole entry, canonical isoform): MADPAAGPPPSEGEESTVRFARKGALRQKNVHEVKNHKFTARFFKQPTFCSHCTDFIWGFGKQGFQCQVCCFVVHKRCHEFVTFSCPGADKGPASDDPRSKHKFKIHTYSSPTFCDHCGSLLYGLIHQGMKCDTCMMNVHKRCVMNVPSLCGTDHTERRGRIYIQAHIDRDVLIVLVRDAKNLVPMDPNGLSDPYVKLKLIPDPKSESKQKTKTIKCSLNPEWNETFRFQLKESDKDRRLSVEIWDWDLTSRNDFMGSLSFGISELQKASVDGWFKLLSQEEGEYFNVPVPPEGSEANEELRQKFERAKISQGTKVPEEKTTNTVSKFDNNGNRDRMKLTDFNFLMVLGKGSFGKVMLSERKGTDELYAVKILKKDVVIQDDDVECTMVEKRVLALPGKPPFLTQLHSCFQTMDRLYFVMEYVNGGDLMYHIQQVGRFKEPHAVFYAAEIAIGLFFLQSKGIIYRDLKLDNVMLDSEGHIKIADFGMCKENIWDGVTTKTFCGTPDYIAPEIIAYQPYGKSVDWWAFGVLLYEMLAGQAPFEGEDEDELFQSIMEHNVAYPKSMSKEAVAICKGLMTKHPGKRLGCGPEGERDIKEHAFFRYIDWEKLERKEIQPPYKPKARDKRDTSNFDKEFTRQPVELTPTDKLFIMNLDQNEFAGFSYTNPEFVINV
T6 sequence (P08922 whole entry): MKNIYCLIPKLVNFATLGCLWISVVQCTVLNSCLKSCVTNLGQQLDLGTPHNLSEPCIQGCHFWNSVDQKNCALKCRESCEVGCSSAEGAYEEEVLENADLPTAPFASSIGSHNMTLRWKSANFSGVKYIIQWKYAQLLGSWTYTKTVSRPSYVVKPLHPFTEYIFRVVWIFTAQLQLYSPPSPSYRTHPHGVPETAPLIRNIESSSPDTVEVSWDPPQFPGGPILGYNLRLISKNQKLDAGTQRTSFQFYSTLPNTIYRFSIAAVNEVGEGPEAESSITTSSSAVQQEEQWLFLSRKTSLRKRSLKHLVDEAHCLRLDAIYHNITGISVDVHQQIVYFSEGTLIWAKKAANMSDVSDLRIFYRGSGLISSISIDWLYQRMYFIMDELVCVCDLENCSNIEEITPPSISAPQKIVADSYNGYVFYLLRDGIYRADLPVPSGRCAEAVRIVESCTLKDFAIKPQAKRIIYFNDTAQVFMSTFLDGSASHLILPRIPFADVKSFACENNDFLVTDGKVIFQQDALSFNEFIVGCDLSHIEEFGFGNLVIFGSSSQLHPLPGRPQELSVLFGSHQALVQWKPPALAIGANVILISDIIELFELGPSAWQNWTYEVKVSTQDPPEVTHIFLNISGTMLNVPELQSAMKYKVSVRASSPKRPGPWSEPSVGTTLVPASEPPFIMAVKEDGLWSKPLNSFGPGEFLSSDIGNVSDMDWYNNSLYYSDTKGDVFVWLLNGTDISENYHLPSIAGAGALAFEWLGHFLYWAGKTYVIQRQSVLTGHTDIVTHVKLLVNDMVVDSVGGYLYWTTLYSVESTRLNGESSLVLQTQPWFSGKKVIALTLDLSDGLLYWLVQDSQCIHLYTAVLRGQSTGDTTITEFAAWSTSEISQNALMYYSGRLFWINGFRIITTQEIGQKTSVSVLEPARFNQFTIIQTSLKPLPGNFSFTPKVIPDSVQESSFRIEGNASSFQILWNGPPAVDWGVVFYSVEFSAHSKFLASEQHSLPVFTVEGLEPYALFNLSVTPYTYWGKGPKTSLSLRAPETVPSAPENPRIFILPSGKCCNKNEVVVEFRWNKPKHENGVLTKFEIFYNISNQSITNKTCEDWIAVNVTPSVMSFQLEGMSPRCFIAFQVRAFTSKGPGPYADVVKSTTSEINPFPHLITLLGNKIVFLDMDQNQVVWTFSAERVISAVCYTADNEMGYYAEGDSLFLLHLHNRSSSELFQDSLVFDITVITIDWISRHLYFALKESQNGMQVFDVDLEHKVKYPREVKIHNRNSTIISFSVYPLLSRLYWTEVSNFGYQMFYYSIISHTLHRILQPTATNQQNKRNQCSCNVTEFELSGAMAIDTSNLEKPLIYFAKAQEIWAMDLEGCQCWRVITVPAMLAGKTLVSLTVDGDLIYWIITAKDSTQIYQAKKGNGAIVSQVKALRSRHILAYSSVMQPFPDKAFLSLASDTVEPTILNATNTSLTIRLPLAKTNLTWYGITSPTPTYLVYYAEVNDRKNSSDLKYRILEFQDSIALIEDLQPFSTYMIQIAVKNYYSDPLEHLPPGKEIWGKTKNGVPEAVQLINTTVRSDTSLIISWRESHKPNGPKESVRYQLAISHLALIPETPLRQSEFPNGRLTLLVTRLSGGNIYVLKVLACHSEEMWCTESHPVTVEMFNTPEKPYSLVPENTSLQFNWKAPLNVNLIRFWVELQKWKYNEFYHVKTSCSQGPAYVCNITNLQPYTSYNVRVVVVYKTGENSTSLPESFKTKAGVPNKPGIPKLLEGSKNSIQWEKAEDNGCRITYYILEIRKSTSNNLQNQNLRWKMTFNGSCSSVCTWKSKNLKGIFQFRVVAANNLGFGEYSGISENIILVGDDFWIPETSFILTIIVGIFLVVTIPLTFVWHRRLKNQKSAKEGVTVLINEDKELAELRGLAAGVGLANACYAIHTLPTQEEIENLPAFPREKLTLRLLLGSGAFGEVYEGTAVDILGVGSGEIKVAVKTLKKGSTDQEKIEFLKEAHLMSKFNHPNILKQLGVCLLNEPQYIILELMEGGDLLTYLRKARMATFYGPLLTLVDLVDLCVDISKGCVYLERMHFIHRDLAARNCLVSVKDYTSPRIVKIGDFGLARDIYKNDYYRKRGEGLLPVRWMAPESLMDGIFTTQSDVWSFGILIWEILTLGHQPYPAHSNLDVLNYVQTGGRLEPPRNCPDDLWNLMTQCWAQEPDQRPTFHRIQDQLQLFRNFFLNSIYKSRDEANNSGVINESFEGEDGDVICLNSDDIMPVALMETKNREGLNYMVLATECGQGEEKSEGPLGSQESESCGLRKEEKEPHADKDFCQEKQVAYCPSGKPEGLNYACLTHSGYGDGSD

On to `CC[C@@H](N)CNc1ccnc(-c2cc(-c3cnn(C)c3)ccc2O)n1` [CRT0066101], for which the inhibition (in general, the relative decrease from the control value, in per cent) at 1 µM against PIK3CG / p85 (h) was -1%; at Fes(h) it was -20%; against Flt1(h), -6%; on ErbB4(h) it was 3%; on PKCβII(h), -1%; on PIK3CA it was 1%. The inhibition at 1 µM against IKKα(h) is 66%; against HIPK1(h), 23%; on DGKG it was -3%; against TAK1(h), -6%; on PKCε(h), 12%; against Ros(h), -13%. Besides, the inhibition at 1 µM was -9% against PIK3CB; -9% against DGKB; 0% on LIMK1(h); 9% on MEK1(h); 2% against EphA2(h); 12% against Blk(m).
